Experimental data reported in patent US20240376427A1, “COMPOSITIONS AND SYSTEMS COMPRISING THREE-DIMENSIONAL NERVE CELL CULTURES AND METHODS OF USING THE SAME” (THE ADMINISTRATORS OF THE TULANE EDUCATIONAL FUND, priority 2021, published 2024).

Legend:
[1] = tested on: DRG spheroid monocultures; type: cell-based, rat
DRG monocultures = assay: CaMPARI-2 recorded calcium influx in DRG monocultures (capsaicin); type: cell-based, rat; conditions: 10 μM capsaicin for five minutes prior to photostimulation, vs vehicle (0.1% DMSO)
Procedure: (§1) AAV1-hSyn-NES-his-CaMPARI2-WPRE-SV40 was a gift from Eric Schreiter (Addgene viral prep #101060-AAV1; http://n2t.net/addgene:101060; […]; http://n2t.net/addgene:58880; RRID:Addgene_5880). Viral particles of both types were added during spheroid formation with a MOI of 200,000. Cultures were seeded and matured for three weeks. Baseline red fluorescence was imaged with both three and ten second exposures prior to photostimulation using a Nikon AZ100 fluorescent microscope (2× magnification plus 5× or 8× digital zoom). […] Post-photostimulation red fluorescence was again imaged with methods identical to baseline imaging. The integrated pixel intensity for a region of interest encompassing each spheroid of interest was quantified in Fiji (ImageJ) and post-photostimulation intensity was normalized to pre stimulation intensity to obtain a final value for fold change in integrated pixel intensity.
(§2) The optogenetic experiments were conducted with between-samples designs. The fold change in red fluorescence before and after photostimulation was compared between control cultures and groups of cultures that received different independent treatments. […]

[2] = tested on: DRG(CHR2-GFP)-SCDH(CaMPARI-2) cocultures; assay: Optogenetic DRG photostimulation-induced calcium influx in SCDH recorded by CaMPARI-2; type: cell-based, rat
Procedure: as §1, §2

[3] = tested on: hPSC-derived nociceptor-dorsal spinal cord cocultures; assay: Evoked response field potential recording in hPSC-derived nociceptor-dorsal spinal cord cocultures; type: cell-based, human
Procedure: Generation o±3D Spheroid Cultures. Cryogenically preserved human stem-cell derived spinal cord dorsal horn (SCDH) precursor cells were a kind gift from the Randolph Ashton. Cells were rapidly thawed and diluted 1:4 in Neurobasal Medium (Thermo-Fisher Scientific, Waltham, MA). Cells were centrifuged at 300 g for 4 minutes and the supernatant was removed. Cells were then resuspended in neuronal differentiation media comprised of Neurobasal Medium supplemented with 2% v/v B27 supplement (Thermo-Fisher), 1% v/v N2 supplement (Thermo-Fisher), 1% v/v GlutaMAX (Thermo-Fisher), 20 ng/mL human nerve growth factor, 10 ng/mL recombinant human/murine/rat brain derived neurotrophic factor, 10 ng/mL recombinant human glial cell derived neurotrophic factor, 10 ng/mL recombinant human NT-3 (all growth factors from PeproTech, Cranbury, NJ, USA), 1 uM dibutyrl-cAMP (Millipore-Sigma, St. Louis, MO, USA), 10 uM Y-27632 (Abcam, Waltham, MA, USA), 10 uM DAPT (Tocris, Minneapolis, MN, USA), and 1% v/v antibiotic/antimycotic solution (Thermo-Fisher). Cells were plated at 500,000 cells/cm^2 on culture well plates coated with Matrigel (Corning) diluted at 1:100 for six days in neuronal differentiation media changed every-other-day to force terminal neuron differentiation. Cryogenically preserved human stem cell-derived nociceptors were purchased from Anatomic, Inc (Minneapolis, MN, USA). Cells were rapidly thawed, diluted 1:4 in Neurobasal Medium, centrifuged at 300 g for 4 minutes, and the supernatant was removed. Nociceptors were then resuspended in human culture growth media (identical to neuronal differentiation media but lacking DAPT and Y-27632) plated at 80,000 cells/cm^2 in well plates coated with Matrigel diluted at 1:100, allowed to adhere overnight, and washed to remove any dead cell debris. Nociceptor and terminally differentiated SCDH cell cultures were lifted by incubation in Accutase at 37° C. for 15 minutes. The cell suspensions were collected, centrifuged at 300 g for 4 minutes, the supernatant was removed, and both cell types were resuspended in culture growth media. […]

[4] = tested on: hPSC-derived nociceptor-SCDH cocultures; type: cell-based, human

## O=C(O)CN(CCN(CC(=O)O)CC(=O)O)CC(=O)O [EDTA, ethylenediaminetetraacetic acid]
[1]
  electrically-evoked compound action potentials (CAPs): insensitive

## COc1cc(CNC(=O)CCCC/C=C/C(C)C)ccc1O [capsaicin]
DRG monocultures
  calcium influx recorded by CaMPARI-2 (fold change in red fluorescence): induced significant calcium influx

## NC1=N[C@H](O)[C@H]2[C@H]3O[C@]4(O)O[C@@H]([C@@H](O)[C@@]2(N1)[C@@H]4O)[C@]3(O)CO [tetrodotoxin]
[1]
  electrically-evoked compound action potentials (CAPs): completely blocked

## N#Cc1cc2c(cc1[N+](=O)[O-])=NC(=O)C(=O)N=2.O.[Na].[Na] [CNQX, 6-Cyano-7-nitroquinoxaline-2,3-dione disodium salt hydrate]
[2]
  calcium influx in SCDH following optical excitation of DRG tissue: significantly reduced calcium influx
[3]
  amplitude of the later negative and positive-going portions of the synaptic waveform: reduced
  synaptically evoked activity in dorsal spinal cord tissue following stimulation of afferent nociceptor spheroid: blocks a large portion
[1]
  electrically-evoked compound action potentials (CAPs): insensitive

## CN1CC[C@]23c4c5ccc(O)c4O[C@H]2[C@@H](O)C=C[C@H]3[C@H]1C5.O=S(=O)(O)O [morphine, Morphine sulfate]
[4]
  fully spontaneous burst firing in SCDH spheroid: increases in frequency and amplitude
  semi-spontaneous burst firing in SCDH spheroid: increased in frequency
[3]
  late, positive-going portion of the synaptically evoked waveform: prolongs
